{"source": "patent EP4800015A1", "about": "“AZABICYCLO DERIVATIVE AND PREPARATION METHOD THEREFOR, AND USE” (Zhejiang Hisun Pharmaceutical Co., Ltd., priority 2023, dated 2025)", "assay_type_in_all_cases": "in vitro ADME", "key": {"[1]": {"test": "Metabolic stability in human liver microsomes", "settings": "human liver microsomes 0.5 mg mL^-1, NADPH 1 mM, 0-60 min; read-out: Liver microsomal stability t1/2 (min) Human", "description": "(§1) The purpose of this study was to investigate the metabolic stability of the compounds of the present disclosure in human and dog liver microsomes.\n(§2) The compounds were co-incubated with human (or dog) liver microsomes, and the reaction was initiated by adding coenzyme NADPH (1 mM). At 0, 5, 15, 30, and 60 minutes, 60 µL of incubation solution was removed, and 180 µL of acetonitrile containing internal standard (clopidogrel) was added to quench the reaction, the mixture was shaken for 10 seconds, centrifuged at 10000 rpm for 10 minutes, and the supernatant was taken for analysis by LC-MS/MS. The in vitro intrinsic clearance was calculated based on the elimination half-life of the test compound in the incubation system. Midazolam was used as an internal reference compound, with two parallel incubations for each. Incubation conditions are summarized in Table 6 below: Table 6 Incubation conditions for the example compounds of the present disclosure\n(§3) The ratio of the peak area of analyte to internal standard (Aanalyte/AIS) was obtained from the instrument, and the remaining percentage (%Control) was calculated from the ratio of Aanalyte/AIS in non-zero time point samples to zero time samples. Ln (%Control) was plotted against incubation time and linearly fitted. The test compound clearance constant (k, min^-1) and clearance half-life (T1/2, min) were calculated using the following equations. k = −slope [formula] T1/2 = 0.693/k. [formula]"}, "[2]": {"test": "Metabolic stability in dog liver microsomes", "settings": "dog liver microsomes 0.5 mg mL^-1, NADPH 1 mM, 0-60 min; read-out: Liver microsomal stability t1/2 (min) Dog", "description": "as §1, §2, §3"}, "[3]": {"test": "Caco-2 bidirectional permeability and efflux ratio", "settings": "human, Caco-2, 10 µM, 120 minutes", "description": "(§4) The bidirectional permeability and efflux ratio of the example compounds and control compound were determined in a Caco-2 monolayer cell model.\n(§5) Caco-2 cells (cultured at Shanghai Medicilon Inc.) were recovered in the experiment. After the cells were in good condition, they were digested, and the cell density was adjusted (1 × 10^5 cells/cm^2). Caco-2 cells were seeded into Transwell chambers and placed in 24-well plates for cultivation. After continuous cultivation for about 21 days, TEER values were measured one day before the experiment to ensure formation of a confluent cell monolayer for transport experiments (TEER > 200 Ω·cm^2). Test compounds were diluted from 10 mM stock solutions to 10 µM concentration using transport buffer (HBSS containing BSA) (metoprolol and atenolol were set as positive compounds). For efflux determination, 0.6 mL of compound dilution solution was added to the outer well (side B), and 0.4 mL of blank transport buffer was added to the Transwell chamber. For absorption determination, 0.4 mL of transport buffer containing compound was added to the Transwell chamber, and 0.6 mL of blank transport buffer was added to the outer side. After setup, the 24-well plates were cultivated at 37 °C and 5% CO2 with 95% relative humidity for 120 minutes, and permeability of test compounds from A to B direction or B to A direction was measured, respectively, with two duplicate wells set for each direction. Liquid in Transwell chambers and 24-well plates was collected separately, 60 µL each, and 180 µL of acetonitrile (containing internal standard) was added, vortexed for 1 min, then centrifuged at 4 °C, 10000 rpm for 10 min. The supernatant was taken, filtered through a 0.22 µm membrane, and placed in vials for testing. The content of the compounds in each Transwell chamber and 24-well plate was determined by liquid chromatography-tandem mass spectrometry (LC-MS/MS). Table 4 Permeability data of compounds of the present disclosure"}, "[4]": {"test_system": "Caco-2 monolayer cell model", "test": "Caco-2 bidirectional permeability and efflux ratio", "settings": "Caco-2, conclusion", "description": "as §4, §5"}}, "data": [{"compound": "CCc1c(N2CCN(C(=O)c3ncnc(C)c3O)CC2)c(=O)n2nc(-c3cc4ccccc4s3)nc2n1CC(=O)Nc1ccc(C(F)(F)F)cc1Cl", "note": "[Example 80, 2-(2-(benzo[b]thiophen-2-yl)-5-ethyl-6-(4-(5-hydroxy-6-methylpyrimidine-4-carbonyl)piperazin-1-yl)-7-oxo-[1,2,4]triazolo[1,5-a]pyrimidin-4(7H)-yl)-N-(2-chloro-4-(trifluoromethyl)phenyl)acet amide]", "values": [{"measurement": "half-life", "setting": "[1]", "value": 1300, "unit": "min"}, {"measurement": "half-life", "setting": "[2]", "value": 637, "unit": "min"}, {"measurement": "efflux ratio at 120 min, 10 µM", "setting": "[3]; read-out: Efflux ratio Papp(B-A)/ Papp(A-B)", "value": 0.62}, {"measurement": "Papp A→B at 120 min, 10 µM", "setting": "[3]; A to B", "value": 3.67, "unit": "×10⁻⁶ cm/s"}, {"measurement": "Papp B→A at 120 min, 10 µM", "setting": "[3]; B to A", "value": 2.29, "unit": "×10⁻⁶ cm/s"}, {"measurement": "efflux (in words)", "setting": "[4]", "value": "no significant efflux"}, {"measurement": "permeability (in words)", "setting": "[4]", "value": "moderate permeability"}]}]}
